The values that follow come from publication PMC12220852, “An adamantane‐based ligand as a novel chemical tool for thermosensory TRPM8 channel therapeutic modulation” (The Febs Journal, 2025).

The structures appear in SMILES notation. “Also recorded” adds a separate entry of the source. A value given as a limit tells only on which side of the number the result lay.

For test [1], the system named is WS‐12‐evoked action potentials in primary cultures of murine DRG sensory neurons. As to the kind of experiment: Multielectrode array (MEA): WS-12-evoked action potential firing in DRG sensory neurons. In kind it is cell-based. The settings on record: Mus musculus, Neuron; 0.43 μM compound, 1 μM WS-12, MEA, P2/P1; read-out: inhibition of WS‐12‐induced action potential firing. How it is done: Complementarily, we examined the effect of compound 23 on WS‐12‐evoked action potentials in primary cultures of murine DRG sensory neurons. For this task, we recorded neuronal excitability using multielectrode arrays (MEAs). […] A protocol of two sequential pulses of WS‐12 interspersed with a washing pulse was applied to correct for channel desensitization (Fig. 7A, upper recording). Compounds 23 and AMTB (0.43 and 10 μM, respectively) were applied 1 min before and during the second WS‐12 pulse (Fig. 7A, second, third, and fourth recordings). As depicted in Fig. 7B, compound 23 virtually abolished action potential firings induced by WS‐12 application in murine primary afferent neurons (≥ 75%). Thus, compound 23 appears to be a potent inhibitor of WS12‐evoked firing frequency, even surpassing the efficacy of AMTB […] (Fig. 7B).
Primary cultures of neonatal dorsal root ganglia were used for multielectrode array (MEA) and patch‐clamp experiments following established methodologies previously described. Neonatal dorsal root ganglia (DRGs) were obtained from Wistar rats (3–5 days old) and were isolated and digested with 0.25% (w/v) collagenase (type IA) in DMEM GlutaMax with 1% (v/v) penicillin/streptomycin (P/S) solution for 1 h at 37 °C in a 5% CO2 Thermo Scientific incubator. […]

Test [2] deals with oxaliplatin‐induced peripheral cold allodynia in mice. As to the kind of experiment: Acetone drop test in oxaliplatin-induced cold allodynia. The settings on record: 30 and 90 min after administration, oxaliplatin-treated mice. The class given is in vivo, mouse. The procedure: Given the inhibitory activity of compound 23 and the antinociceptive effects of TRPM8 antagonists described in models of oxaliplatin (OXP)‐induced neuropathy, we conducted a behavioral experiment in mice to assess the antinociceptive effects of compound 23 after repeated oxaliplatin administration. Oxaliplatin was intraperitoneally (i.p.) administered every other day for 5 days at 6 mg·kg^−1, reaching a total accumulative dose of 18 mg·kg^−1. […]
The systemic effect of compound 23 was assessed after intraperitoneal administration at 5 mg·kg^−1, dissolved in a solution of 2% Cremophor and 5% DMSO in saline, with a volume of 10 mL·kg^−1. […] Nociceptive sensitivity was evaluated for 30‐ and 90‐min postinjection using the acetone drop test (7 days after the first oxaliplatin dose) and the dry ice test (9 days after the last oxaliplatin dose).
The local effect of compound 23 or its vehicle was assessed 11 days after beginning the oxaliplatin treatment through subcutaneous intraplantar injection of 1 μg compound 23 or vehicle (2% Cremophor and 5% DMSO in saline) in the ventral side of the right hind paw, administered in a volume of 10 μL [66]. […] Nociceptive sensitivity was evaluated 30 and 90 min after the intraplantar injection with the acetone test. […]

Broadly, the inhibition is the percentage by which the read-out fell short of the control. With `O=C(COC(=O)c1ccccc1-c1ccccc1)NC12CC3CC(CC(C3)C1)C2` [Compound 23, 2‐((3S,5S,7S)‐adamantan‐1‐ylamino)‐2‐oxoethyl [1,1′‐biphenyl]‐2‐carboxylate], in test [1], the inhibition at 0.43 µM was no less than 75%. In addition, the “effect on response to acetone, local treatment” value in test [2] (1 μg subcutaneous intraplantar (i.pl.)) was “alleviated oxaliplatin‐induced cold sensitivity; also recorded: significant antinociceptive effect”. Also, the “effect on licking response to acetone drops, systemic treatment” value in test [2] (5 mg·kg^−1 i.p., vs vehicle) was “no significant effect; also recorded: did not significantly affect”.
